Reference: US20240279215A1 (Cytokinetics, Incorporated, priority 2022, published 2024)

Target: human NAMPT (Homo sapiens (Human), UniProt P43490)
Experiment: NMN fluorescence biochemical assay (human recombinant NAMPT enzyme assay)
Experimental: Compounds described herein were assayed for their ability to stimulate the synthesis of nicotinamide mononucleotide (NMN) by the enzyme NAMPT. The human recombinant enzyme assay measures the activation of the enzyme activity by compounds using recombinant enzyme and substrates in a buffered cell-free system. The assay conditions closely mimic cellular environments. Dose responses were measured using an assay to detect the formation of nicotinamide mono-nucleotide. All experiments were performed in the 384-well format. Generally, 0.5 μL of DMSO containing varying concentrations of the test compound was mixed with 10 μL of the enzyme reagent solution. Enzyme reactions were initiated with the addition of […] containing the substrates. The final assay conditions were as follows: 6 nM human NAMPT, 2.5 mM ATP, 20 μM PRPP and 150 μM nicotinamide in 50 mM HEPES, pH 7.2, 1 mM DTT, 1 mM CHAPS 50 mM NaCl, 100 mM MgCl2. Following an incubation of 60 min at ambient temperature, 10 μL of 20% acetophenone in DMSO was added, followed by 10 μL of 2 M KOH and 40 μL of formic acid. The plates were read for fluorescence (Excitation/Emission=355 nm/460 nm) using an EnVision plate reader after 40 mins of incubation at ambient temperature.

human NAMPT, sequence (P43490 whole entry): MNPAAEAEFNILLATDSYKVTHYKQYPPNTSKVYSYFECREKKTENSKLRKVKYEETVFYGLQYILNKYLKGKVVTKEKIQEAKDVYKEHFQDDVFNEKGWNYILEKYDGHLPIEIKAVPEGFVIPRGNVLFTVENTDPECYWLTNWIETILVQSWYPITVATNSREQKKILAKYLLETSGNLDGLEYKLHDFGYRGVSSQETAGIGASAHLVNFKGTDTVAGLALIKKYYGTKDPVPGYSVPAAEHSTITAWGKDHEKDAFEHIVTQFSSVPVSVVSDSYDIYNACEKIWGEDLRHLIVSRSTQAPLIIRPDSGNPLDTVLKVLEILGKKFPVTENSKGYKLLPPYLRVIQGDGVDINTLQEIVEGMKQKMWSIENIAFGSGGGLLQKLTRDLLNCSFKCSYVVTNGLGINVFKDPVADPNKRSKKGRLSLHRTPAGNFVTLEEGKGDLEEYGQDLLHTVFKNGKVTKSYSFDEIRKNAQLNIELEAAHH

SMILES | AC1.4 Human [µM] | EC50 [µM]
CC(=O)N1CCC(CCc2ccc(NC(=O)OCc3cnco3)cc2)CC1 [Compound 26, oxazol-5-ylmethyl (4-(2-(1-acetylpiperidin-4-yl)ethyl)phenyl)carbamate] | 0.35 | 27.5
CN1CCN(Cc2ccc(NC(=O)OCc3ccc(Cl)cc3)cc2)C(=O)C1 [Compound 28, 4-chlorobenzyl (4-((4-methyl-2-oxopiperazin-1-yl)methyl)phenyl)carbamate] | 0.36 | 3.01
CN(C)C(=O)N1CCC(Cc2ccc(NC(=O)OCc3cnco3)cc2)CC1 [Compound 30, oxazol-5-ylmethyl (4-((1-(dimethylcarbamoyl)piperidin-4-yl)methyl)phenyl)carbamate] | 0.37 | 25.1
CC(=O)N1CCC(Cc2ccc(NC(=O)OCc3cnco3)cc2)CC1 [Compound 31, oxazol-5-ylmethyl (4-((1-acetylpiperidin-4-yl)methyl)phenyl)carbamate] | 0.37 | 21.7
CC(C)C(=O)N1CCC(Cc2ccc(NC(=O)OCc3cnco3)cc2)CC1 [Compound 35, oxazol-5-ylmethyl (4-((1-isobutyrylpiperidin-4-yl)methyl)phenyl)carbamate] | 0.39 | 37.9
Cc1ccc(C(=O)NCc2ccc(NC(=O)OCc3ccncc3)cc2)cn1 [Compound 37, pyridin-4-ylmethyl (4-((6-methylnicotinamido)methyl)phenyl)carbamate] | 0.41 | 3.67
C[C@H](NC(=O)c1ccc(F)cc1)c1ccc(NC(=O)OCc2cnco2)cc1 [Compound 39, 1,3-oxazol-5-ylmethyl N-{4-[(1S)-1-[(4-fluorophenyl)formamido]ethyl]phenyl}carbamate] | 0.43 | 19.2
COC1CCN(C(=O)N(C)Cc2ccc(NC(=O)OCc3ccc(Cl)cc3)cc2)CC1 [Compound 42, 4-chlorobenzyl (4-((4-methoxy-N-methylpiperidine-1-carboxamido)methyl)phenyl)carbamate] | 0.44 | 5.66
C[C@H](NC(=O)c1ccncc1F)c1ccc(NC(=O)OCc2ccc(Cl)cc2)cc1 [Compound 44, (4-chlorophenyl)methyl N-{4-[(1S)-1-[(3-fluoropyridin-4-yl)formamido]ethyl]phenyl}carbamate] | 0.45 | 4.19
COc1ccc(COC(=O)Nc2ccc([C@@H](C)C(=O)N3CCC[C@H]3CO)cc2)cc1 [Compound 47] | 0.49 | 9.61
O=C(Nc1ccc(CC2CCN(C(=O)C3COC3)CC2)cc1)OCc1cnco1 [Compound 48, oxazol-5-ylmethyl (4-((1-(oxetane-3-carbonyl)piperidin-4-yl)methyl)phenyl)carbamate] | 0.49 | 31
Cc1ccc(Cc2ccc(NC(=O)OCc3cnco3)cc2)cn1 [Compound 51, oxazol-5-ylmethyl (4-((6-methylpyridin-3-yl)methyl)phenyl)carbamate] | 0.50 | 40.3
COc1ccc(COC(=O)Nc2ccc(CNC(=O)c3ccc(C)nc3)cc2)cc1 [Compound 53, (4-methoxyphenyl)methyl N-(4-{[(6-methylpyridin-3-yl)formamido]methyl}phenyl)carbamate] | 0.51 | 5.89
CN1CC(=O)NC[C@@H]1c1ccc(NC(=O)OCc2ccc(Cl)cc2)cc1 [Compound 54, 4-chlorobenzyl (S)-(4-(1-methyl-5-oxopiperazin-2-yl)phenyl)carbamate] | 0.51 | 8.45

More lines, now with the values ahead:

AC1.4 Human [µM] | EC50 [µM] | SMILES
0.37 | 1.51 | O=C(Nc1ccc(CN2CCN(c3ccccn3)CC2)cc1)OCc1ccc(Cl)cc1 [Compound 29, (4-chlorophenyl)methyl N-(4-{[4-(pyridin-2-yl)piperazin-1-yl]methyl}phenyl)carbamate]
0.38 | 1.01 | O=C(Nc1ccc(NS(=O)(=O)Cc2ccccc2)cc1)OCc1ccc(Cl)cc1 [Compound 33, 4-chlorobenzyl (4-((phenylmethyl)sulfonamido)phenyl)carbamate]
0.38 | 0.82 | CN(C)S(=O)(=O)N1CCC(Cc2ccc(NC(=O)OCc3ccc(Cl)cc3)cc2)CC1 [Compound 34, 4-chlorobenzyl (4-((1-(N,N-dimethylsulfamoyl)piperidin-4-yl)methyl)phenyl)carbamate]
0.40 | 1 | CN(Cc1ccc(NC(=O)OCc2ccc(Cl)cc2)cc1)C(=O)c1ccncc1F [Compound 36, (4-chlorophenyl)methyl N-(4-{[1-(3-fluoropyridin-4-yl)-N-methylformamido]methyl}phenyl)carbamate]
0.42 | 1.22 | CS(=O)(=O)N1CCC(Cc2ccc(NC(=O)OCc3ccc(Cl)cc3)cc2)CC1 [Compound 38, 4-chlorobenzyl (4-((1-(methylsulfonyl)piperidin-4-yl)methyl)phenyl)carbamate]
0.44 | 3.48 | CN(Cc1ccc(NC(=O)OCc2ccc(Cl)cc2)cc1)C(=O)c1cn[nH]c1 [Compound 41, (4-chlorophenyl)methyl N-{4-[(N-methyl-1-1H-pyrazol-4-ylformamido)methyl]phenyl}carbamate]
0.46 | 1.88 | Cc1cnn(C)c1C(=O)NCc1ccc(NC(=O)OCc2ccc(Cl)cc2)cc1 [Compound 45, (4-chlorophenyl)methyl N-(4-{[(2,4-dimethylpyrazol-3-yl)formamido]methyl}phenyl)carbamate]
0.48 | 2.58 | Cc1noc(C(=O)N[C@@H](C)c2ccc(NC(=O)OCc3ccc(Cl)cc3)cc2)c1C [Compound 46, 4-chlorobenzyl (S)-(4-(1-(3,4-dimethylisoxazole-5-carboxamido)ethyl)phenyl)carbamate]
0.50 | 2.02 | CN(Cc1ccc(NC(=O)OCc2ccc(Cl)cc2)cc1)C(=O)c1cc[nH]n1 [Compound 49, (4-chlorophenyl)methyl N-{4-[(N-methyl-1-1H-pyrazol-3-ylformamido)methyl]phenyl}carbamate]
0.50 | 0.89 | CN(Cc1ccc(NC(=O)OCc2ccc(Cl)cc2)cc1)C(=O)c1ccnn1C [Compound 50, (4-chlorophenyl)methyl N-(4-{[N-methyl-1-(2-methylpyrazol-3-yl)formamido]methyl}phenyl)carbamate]
0.51 | 1.82 | CN(Cc1ccc(NC(=O)OCc2ccc(Cl)cc2)cc1)C(=O)c1c(F)cncc1F [Compound 55, (4-chlorophenyl)methyl N-(4-{[1-(3,5-difluoropyridin-4-yl)-N-methylformamido]methyl}phenyl)carbamate]
0.53 | 2.8 | COCCn1nccc1C(=O)N[C@@H](C)c1ccc(NC(=O)OCc2ccc(Cl)cc2)cc1 [Compound 56, (4-chlorophenyl)methyl N-{4-[(1S)-1-{[2-(2-methoxyethyl)pyrazol-3-yl]formamido}ethyl]phenyl}carbamate]
0.54 | 1.29 | C[C@H](NC(=O)c1c(F)cncc1F)c1ccc(NC(=O)OCc2ccc(Cl)cc2)cc1 [Compound 57, (4-chlorophenyl)methyl N-{4-[(1S)-1-[(3,5-difluoropyridin-4-yl)formamido]ethyl]phenyl}carbamate]
